*1 amine or outer side, *2 acyl side, *3 side chain or, on linkers, in order; H or OH if unused. Where a SMILES comes first, the peptide text is derived from it. Bridges are numbered along the chain shown (N, C = ends). [ ]: non-standard residue; d: D form. The star is where a group is joined. X25 = O=C([C@H](Cc1ccc(C(F)(F)F)cc1)N(CCC(F)(F)F)[*:1])[*:2]; X23 = O=C([C@H](Cc1ccc(C(F)(F)F)cc1)N(CC1CCCC1)[*:1])[*:2]; hPhe(3-Cl-4-CF3) = N[C@@H](CCc1ccc(C(F)(F)F)c(Cl)c1)C(=O)O; X24 = CC(C)CN([C@@H](Cc1ccc(C(F)(F)F)cc1)C(=O)[*:2])[*:1]; X39 = O=C([C@H](Cc1ccc(C(F)(F)F)cc1)N(CC1CCC1)[*:1])[*:2]; X22 = C=CCCN([C@@H](Cc1ccc(C(F)(F)F)cc1)C(=O)[*:2])[*:1]; X33 = O=C([C@H](Cc1ccc(C(F)(F)F)cc1)N(CC1CC1)[*:1])[*:2]; X12 = C=CCN([C@@H](Cc1ccc(C(F)(F)F)cc1)C(=O)[*:2])[*:1]; X18 = CCCCN([C@@H](Cc1ccc(C(F)(F)F)cc1)C(=O)[*:2])[*:1]; X29 = C#CCN([C@@H](Cc1ccc(C(F)(F)F)cc1)C(=O)[*:2])[*:1]; X34 = COCCN([C@@H](Cc1ccc(C(F)(F)F)cc1)C(=O)[*:2])[*:1]; X27 = COCCCN([C@@H](Cc1ccc(C)cc1)C(=O)[*:2])[*:1]; X14 = COCCN([C@@H](Cc1ccc(C)cc1)C(=O)[*:2])[*:1]; NMeGly(cPent) = CN[C@H](C(=O)O)C1CCCC1; NMeD = CN[C@@H](CC(=O)O)C(=O)O; NMeL = CN[C@@H](CC(C)C)C(=O)O; Morpholide = C1CN(*)CCO1; NMeA = CN[C@@H](C)C(=O)O; Ac5c = NC1(C(=O)O)CCCC1; Aze = O=C(O)[C@@H]1CCN1; Sar = CNCC(=O)O
Columns and labels:
[1] = target: HRAS wild-type protein (Homo sapiens, UniProt P01112); test: Binding to HRAS by surface plasmon resonance (SPR), KD and KD ratio to KRAS; settings: ratio of KD for HRAS wild-type protein to KD for KRAS
In short: (§1)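 Captured GDP-RAS (~100–300 RU) was exposed to increasing compound concentrations, 75 s per step, in running buffer with 10 µM GDP, 10 mM MgCl2 and 4% DMSO at pH 7.4.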

[2] = system: human lung cancer strain NCI-H441; format: cell-based
In short: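 Step one: dispense the test compound in serial DMSO dilutions. Step three: add the reagent and measure […].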

[3] = target: GDP-bound NRAS wild-type protein (Homo sapiens, UniProt P01111); test: Binding to NRAS by surface plasmon resonance (SPR), KD and KD ratio to KRAS; settings: ratio of KD for GDP-bound NRAS wild-type protein to KD for KRAS
In short: as §1

Sequence of HRAS wild-type protein (P01112 whole entry): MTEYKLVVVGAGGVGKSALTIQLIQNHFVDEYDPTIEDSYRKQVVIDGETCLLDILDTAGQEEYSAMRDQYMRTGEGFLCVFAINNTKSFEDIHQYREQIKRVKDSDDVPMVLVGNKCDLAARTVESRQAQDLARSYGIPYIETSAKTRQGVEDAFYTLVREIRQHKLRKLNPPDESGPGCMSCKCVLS
Sequence of GDP-bound NRAS wild-type protein (P01111 whole entry): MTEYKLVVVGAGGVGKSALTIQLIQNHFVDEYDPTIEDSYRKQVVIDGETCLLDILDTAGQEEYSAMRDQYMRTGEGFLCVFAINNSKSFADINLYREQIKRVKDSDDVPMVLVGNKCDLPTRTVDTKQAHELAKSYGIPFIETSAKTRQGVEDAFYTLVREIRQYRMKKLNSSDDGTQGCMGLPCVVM

Row | SMILES | HRAS /KRAS [1] | IC50 [2] [nM] | NRAS /KRAS [3]
1 | CC[C@H](C)[C@@H]1NC(=O)[C@H](CC(C)C)N(C)C(=O)C[C@@H](C(=O)N2CCOCC2)N(C)C(=O)[C@H](C2CCCC2)N(C)C(=O)C2(CCCC2)NC(=O)[C@@H]2CCCN2C(=O)[C@H](CCc2ccc(C(F)(F)F)c(Cl)c2)NC(=O)CN(C)C(=O)[C@H](Cc2ccc(C)cc2)N(CCOC)C(=O)CN(C)C(=O)CN(C)C1=O [PP0104] ([NMeL]I[Sar][Sar][X14][Sar][hPhe(3-Cl-4-CF3)]P[Ac5c][NMeGly(cPent)][NMeD]-Morpholide; lactam N-11) | C (A compound having a KD ratio of 0.1 or more and less than 3 is denoted as C) | 6.7 | B (a compound having 3 or more and less than 10 is denoted as B)
2 | CC[C@H](C)[C@@H]1NC(=O)[C@H](CC(C)C)N(C)C(=O)C[C@@H](C(=O)N2CCOCC2)N(C)C(=O)[C@H](C2CCCC2)N(C)C(=O)C2(CCCC2)NC(=O)[C@@H]2CCCN2C(=O)[C@H](CCc2ccc(C(F)(F)F)c(Cl)c2)NC(=O)CN(C)C(=O)[C@H](Cc2ccc(C)cc2)N(CCCOC)C(=O)CN(C)C(=O)CN(C)C1=O [PP0105] ([NMeL]I[Sar][Sar][X27][Sar][hPhe(3-Cl-4-CF3)]P[Ac5c][NMeGly(cPent)][NMeD]-Morpholide; lactam N-11) | C (A compound having a KD ratio of 0.1 or more and less than 3 is denoted as C) | 8.3 | B (a compound having 3 or more and less than 10 is denoted as B)
3 | CCCCN1C(=O)[C@@H]2CCN2C(=O)[C@H](C)N(C)C(=O)[C@H]([C@@H](C)CC)NC(=O)[C@H](CC(C)C)N(C)C(=O)C[C@@H](C(=O)N2CCOCC2)N(C)C(=O)[C@H](C2CCCC2)N(C)C(=O)C2(CCCC2)NC(=O)[C@@H]2CCCN2C(=O)[C@H](CCc2ccc(C(F)(F)F)c(Cl)c2)NC(=O)CN(C)C(=O)[C@@H]1Cc1ccc(C(F)(F)F)cc1 [PP0106] ([NMeL]I[NMeA][Aze][X18][Sar][hPhe(3-Cl-4-CF3)]P[Ac5c][NMeGly(cPent)][NMeD]-Morpholide; lactam N-11) | B (a compound having 3 or more and less than 10 is denoted as B) | 12.3 | C (A compound having a KD ratio of 0.1 or more and less than 3 is denoted as C)
4 | CC[C@H](C)[C@@H]1NC(=O)[C@H](CC(C)C)N(C)C(=O)C[C@@H](C(=O)N2CCOCC2)N(C)C(=O)[C@H](C2CCCC2)N(C)C(=O)C2(CCCC2)NC(=O)[C@@H]2CCCN2C(=O)[C@H](CCc2ccc(C(F)(F)F)c(Cl)c2)NC(=O)CN(C)C(=O)[C@H](Cc2ccc(C(F)(F)F)cc2)N(CC(C)C)C(=O)[C@@H]2CCN2C(=O)[C@H](C)N(C)C1=O [PP0107] ([NMeL]I[NMeA][Aze][X24][Sar][hPhe(3-Cl-4-CF3)]P[Ac5c][NMeGly(cPent)][NMeD]-Morpholide; lactam N-11) | C (A compound having a KD ratio of 0.1 or more and less than 3 is denoted as C) | 32.2 | C (A compound having a KD ratio of 0.1 or more and less than 3 is denoted as C)
5 | CC[C@H](C)[C@@H]1NC(=O)[C@H](CC(C)C)N(C)C(=O)C[C@@H](C(=O)N2CCOCC2)N(C)C(=O)[C@H](C2CCCC2)N(C)C(=O)C2(CCCC2)NC(=O)[C@@H]2CCCN2C(=O)[C@H](CCc2ccc(C(F)(F)F)c(Cl)c2)NC(=O)CN(C)C(=O)[C@H](Cc2ccc(C(F)(F)F)cc2)N(CC2CC2)C(=O)[C@@H]2CCN2C(=O)[C@H](C)N(C)C1=O [PP0108] ([NMeL]I[NMeA][Aze][X33][Sar][hPhe(3-Cl-4-CF3)]P[Ac5c][NMeGly(cPent)][NMeD]-Morpholide; lactam N-11) | C (A compound having a KD ratio of 0.1 or more and less than 3 is denoted as C) | 9 | C (A compound having a KD ratio of 0.1 or more and less than 3 is denoted as C)
6 | CC[C@H](C)[C@@H]1NC(=O)[C@H](CC(C)C)N(C)C(=O)C[C@@H](C(=O)N2CCOCC2)N(C)C(=O)[C@H](C2CCCC2)N(C)C(=O)C2(CCCC2)NC(=O)[C@@H]2CCCN2C(=O)[C@H](CCc2ccc(C(F)(F)F)c(Cl)c2)NC(=O)CN(C)C(=O)[C@H](Cc2ccc(C(F)(F)F)cc2)N(CC2CCC2)C(=O)[C@@H]2CCN2C(=O)[C@H](C)N(C)C1=O [PP0109] ([NMeL]I[NMeA][Aze][X39][Sar][hPhe(3-Cl-4-CF3)]P[Ac5c][NMeGly(cPent)][NMeD]-Morpholide; lactam N-11) | B (a compound having 3 or more and less than 10 is denoted as B) | 21.7 | C (A compound having a KD ratio of 0.1 or more and less than 3 is denoted as C)
7 | CC[C@H](C)[C@@H]1NC(=O)[C@H](CC(C)C)N(C)C(=O)C[C@@H](C(=O)N2CCOCC2)N(C)C(=O)[C@H](C2CCCC2)N(C)C(=O)C2(CCCC2)NC(=O)[C@@H]2CCCN2C(=O)[C@H](CCc2ccc(C(F)(F)F)c(Cl)c2)NC(=O)CN(C)C(=O)[C@H](Cc2ccc(C(F)(F)F)cc2)N(CC2CCCC2)C(=O)[C@@H]2CCN2C(=O)[C@H](C)N(C)C1=O [PP0110] ([NMeL]I[NMeA][Aze][X23][Sar][hPhe(3-Cl-4-CF3)]P[Ac5c][NMeGly(cPent)][NMeD]-Morpholide; lactam N-11) | B (a compound having 3 or more and less than 10 is denoted as B) | 56.5 | C (A compound having a KD ratio of 0.1 or more and less than 3 is denoted as C)
8 | C=CCN1C(=O)[C@@H]2CCN2C(=O)[C@H](C)N(C)C(=O)[C@H]([C@@H](C)CC)NC(=O)[C@H](CC(C)C)N(C)C(=O)C[C@@H](C(=O)N2CCOCC2)N(C)C(=O)[C@H](C2CCCC2)N(C)C(=O)C2(CCCC2)NC(=O)[C@@H]2CCCN2C(=O)[C@H](CCc2ccc(C(F)(F)F)c(Cl)c2)NC(=O)CN(C)C(=O)[C@@H]1Cc1ccc(C(F)(F)F)cc1 [PP0114] ([NMeL]I[NMeA][Aze][X12][Sar][hPhe(3-Cl-4-CF3)]P[Ac5c][NMeGly(cPent)][NMeD]-Morpholide; lactam N-11) | C (A compound having a KD ratio of 0.1 or more and less than 3 is denoted as C) | 6.1 | C (A compound having a KD ratio of 0.1 or more and less than 3 is denoted as C)
9 | C=CCCN1C(=O)[C@@H]2CCN2C(=O)[C@H](C)N(C)C(=O)[C@H]([C@@H](C)CC)NC(=O)[C@H](CC(C)C)N(C)C(=O)C[C@@H](C(=O)N2CCOCC2)N(C)C(=O)[C@H](C2CCCC2)N(C)C(=O)C2(CCCC2)NC(=O)[C@@H]2CCCN2C(=O)[C@H](CCc2ccc(C(F)(F)F)c(Cl)c2)NC(=O)CN(C)C(=O)[C@@H]1Cc1ccc(C(F)(F)F)cc1 [PP0115] ([NMeL]I[NMeA][Aze][X22][Sar][hPhe(3-Cl-4-CF3)]P[Ac5c][NMeGly(cPent)][NMeD]-Morpholide; lactam N-11) | C (A compound having a KD ratio of 0.1 or more and less than 3 is denoted as C) | 2 | C (A compound having a KD ratio of 0.1 or more and less than 3 is denoted as C)
10 | C#CCN1C(=O)[C@@H]2CCN2C(=O)[C@H](C)N(C)C(=O)[C@H]([C@@H](C)CC)NC(=O)[C@H](CC(C)C)N(C)C(=O)C[C@@H](C(=O)N2CCOCC2)N(C)C(=O)[C@H](C2CCCC2)N(C)C(=O)C2(CCCC2)NC(=O)[C@@H]2CCCN2C(=O)[C@H](CCc2ccc(C(F)(F)F)c(Cl)c2)NC(=O)CN(C)C(=O)[C@@H]1Cc1ccc(C(F)(F)F)cc1 [PP0116] ([NMeL]I[NMeA][Aze][X29][Sar][hPhe(3-Cl-4-CF3)]P[Ac5c][NMeGly(cPent)][NMeD]-Morpholide; lactam N-11) | C (A compound having a KD ratio of 0.1 or more and less than 3 is denoted as C) | 6.8 | C (A compound having a KD ratio of 0.1 or more and less than 3 is denoted as C)
11 | CC[C@H](C)[C@@H]1NC(=O)[C@H](CC(C)C)N(C)C(=O)C[C@@H](C(=O)N2CCOCC2)N(C)C(=O)[C@H](C2CCCC2)N(C)C(=O)C2(CCCC2)NC(=O)[C@@H]2CCCN2C(=O)[C@H](CCc2ccc(C(F)(F)F)c(Cl)c2)NC(=O)CN(C)C(=O)[C@H](Cc2ccc(C(F)(F)F)cc2)N(CCC(F)(F)F)C(=O)[C@@H]2CCN2C(=O)[C@H](C)N(C)C1=O [PP0117] ([NMeL]I[NMeA][Aze][X25][Sar][hPhe(3-Cl-4-CF3)]P[Ac5c][NMeGly(cPent)][NMeD]-Morpholide; lactam N-11) | B (a compound having 3 or more and less than 10 is denoted as B) | 9.2 | B (a compound having 3 or more and less than 10 is denoted as B)
12 | CC[C@H](C)[C@@H]1NC(=O)[C@H](CC(C)C)N(C)C(=O)C[C@@H](C(=O)N2CCOCC2)N(C)C(=O)[C@H](C2CCCC2)N(C)C(=O)C2(CCCC2)NC(=O)[C@@H]2CCCN2C(=O)[C@H](CCc2ccc(C(F)(F)F)c(Cl)c2)NC(=O)CN(C)C(=O)[C@H](Cc2ccc(C(F)(F)F)cc2)N(CCOC)C(=O)[C@@H]2CCN2C(=O)[C@H](C)N(C)C1=O [PP0118] ([NMeL]I[NMeA][Aze][X34][Sar][hPhe(3-Cl-4-CF3)]P[Ac5c][NMeGly(cPent)][NMeD]-Morpholide; lactam N-11) | C (A compound having a KD ratio of 0.1 or more and less than 3 is denoted as C) | 6 | C (A compound having a KD ratio of 0.1 or more and less than 3 is denoted as C)
